Read-outs that look alike come from different tables or passages of the source.
Experiments:
[1] = target: R2R3 (N279K) tau peptide (Homo sapiens, UniProt P10636, N596K); assay: SPR titration cycle kinetics, immobilized R2R3 (N279K) peptide; type: binding
Method: SPR experiments were conducted using the Sierra® SPR‐24 Pro system (Bruker Daltonics, Bremen, Germany), featuring a gold‐coated microfluidic array (24 detection spots, 3 × 8 format). Data acquisition and kinetic analysis were performed using SPR Analyzer 4 software.
All experiments were conducted at 25°C using PBS (pH 7.4) supplemented with 0.05% Tween‐20 and 5% DMSO as the running buffer to ensure assay reproducibility. Assay components, including 96‐well microtiter plates (Part # 1862984; Burker) and Microplate and Reservoir Sealer (Part #1862985; Burker), were used for sample handling and were compatible with the Sierra SPR®‐24 Pro system (Bruker Daltonics, Billerica, MA, USA).
WT and mutant (P301L, V287I, and N279K) tau peptides were dissolved in 10 mM sodium acetate buffer (pH 5.0; Burker) and immobilized onto High‐Capacity Amine Sensor Surfaces (Part #1862614; Bruker) using the Amine Coupling Kit (Part #1862634; Bruker). The sensor surface was preconditioned with a Surface Elution Buffer (Part #1862656; Bruker Daltonics) and 0.1M HCl to remove contaminants and improve binding specificity.
The surface was activated using 400 mM 1‐ethyl‐3‐(3‐dimethylaminopropyl) carbodiimide (Burker) and 50 mM N‐hydroxysuccinimide (Burker), enabling covalent attachment of tau peptides. Unreacted binding sites were blocked with 1M ethanolamine‐HCl (pH 8.5; Burker) to minimize nonspecific interactions. For each experiment, specific sensor spots (A/B/C) on channels 1–8 were designated for tau‐analyte interactions, with corresponding reference spots on the same channel for baseline correction. DMSO calibration solutions (4.6%, 4.8%, 5%, 5.2%, and 5.4%) were prepared for double referencing to compensate for DMSO solvent effects.
PUR and OLC were prepared in PBS (pH 7.4) supplemented with 0.05% Tween‐20 and 5% DMSO. Compound interactions with tau peptides were pre‐screened using a concentration range of 1–100 μM, and subsequent binding kinetics were evaluated at optimized concentrations. For kinetic studies, PUR was tested at […], while OLC was tested at 25–100 μM using two‐fold serial dilutions. Each analyte was sequentially injected, and association and dissociation phases were monitored to determine kinetic parameters.
SPR binding kinetics were assessed using the titration cycle kinetics (TCK) assay, which included consecutive association phases followed by a single dissociation phase. Pre‐assay simulations using the Kinetic Simulator feature of SPR Analyzer 4 software were used to optimize analyte concentration ranges and association/dissociation times. A reference blank injection was included for double referencing, and a single dissociation curve was recorded for the highest analyte concentration.
Sensorgrams were analyzed using the Kinetic Titration model, which was integrated into the global kinetic fitting model of the SPR Analyzer 4 software. This approach allowed for baseline correction and improved the reliability of kinetic parameters, including the Kon, Koff, and KD.
TCK‐derived kinetic parameters were compared across multiple runs and confirmed using Multi Injection Cycle Kinetics to validate reproducibility and accuracy.

[2] = target: R2R3 (P301L) tau peptide (Homo sapiens, UniProt P10636, P618L); assay: Atomic force microscopy of R2R3 (P301L) aggregates; type: biochemical; details: compound 10 μM, 48 h
Chain of R2R3 (P301L) tau peptide (P10636 592-653 P618L): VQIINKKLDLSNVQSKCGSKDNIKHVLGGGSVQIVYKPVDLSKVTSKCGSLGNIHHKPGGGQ
Method: Aggregates collected after 48 h of aggregation were processed for AFM analysis as described previously (Annadurai, Malina, Malohlava, et al., [2022]).

[3] = test system: Tau RD P301S FRET Biosensor cells; assay: Biosensor cell seeding assay, post-transduction treatment; type: cell-based; details: for concentrations at which seeding was significantly reduced, post-transduction treatment: P301L fibrils transduced 24 h, then compound for 24 h; for seeding (CFP/YFP inclusions) after post-transduction treatment: WT fibrils transduced 24 h, then compound 0 to 10 μM for 24 h
Method: To further evaluate whether PUR and OLC can suppress pathological tau propagation, we performed post‐transduction treatment assays in Tau RD P301S FRET Biosensor cells. WT or P301L tau fibrils were first transduced into cells for 24 h, followed by treatment with PUR or OLC for an additional 24 h. Prior MTS assays confirmed that these concentrations were non‐toxic to biosensor cells (Figure S16).
Tau peptides were aggregated with or without PUR or OLC in a 7.4 pH aggregation buffer without ThT. After 48 h, the contents of each well were pooled to a final total volume of 120 μL. The concentration of the pooled Aggregation Reaction Products was measured using the Pierce™ BCA Protein Assay Kit (Thermo Fisher Scientific Inc., Cat. # 23225). The reaction products were standardized for cell transduction to a final concentration of 100 nM for both control and drug‐treated samples. The pooled aggregation mixture was sonicated using a Branson Ultrasonic™ Sonifier Cup Horns (Marshall Scientific, Hampton, NH, USA) at 30% amplitude (15 s ON and 15 s OFF for 1 min) to fragment larger aggregates into smaller ones, facilitating consistent transduction.
Tau RD P301S FRET Biosensor cells were plated at 5 × 10^3 cells per well in PhenoPlate 384‐well, black, optically clear flat‐bottom plates (Revvity; Part # 6057302) pre‐coated with 50 μg/mL Poly‐ᴅ‐Lysine (Sigma‐Aldrich, Cat. # P6407). After plating, cells were incubated for 30 min at room temperature to promote better cell spreading before returning the plates to the incubator.
The next day, cells were transduced with 100 nM of aggregation mixture, which were either: (i) prepared in the absence (control) or presence of 10 μM PUR or OLC for co‐aggregation studies (Figure 5), or (ii) prepared exclusively in the absence of compounds for post‐transduction treatment studies (Figure 6). The aggregation mixtures were premixed with 0.2 μL per well TurboFect™ Transfection Reagent (Thermo Fisher Scientific Inc., Cat. # R0533) in 10 μL Opti‐MEM™ (Thermo Fisher Scientific Inc., Cat. #11058021) and added to cells.
For co‐aggregation studies (Figure 5), cells were cultured for 48 h after transduction before processing for imaging. […]
Cells were imaged on a Cell Voyager 7000S high‐content imaging system (Yokogawa, Tokyo, Japan) with a 20× objective. CFP/YFP inclusions of seeded tau were detected using a 488 nm laser line (Ex = 460–490 nm, Em = 500–550 nm), and Hoechst‐stained nuclei were detected using a 405 nm laser line (Ex = 360–400 nm, Em = 410–480 nm). […] Image analysis was performed using Signals Image Artist (Revvity) to quantify the number of cells (Hoechst‐stained nuclei) and intracellular CFP/YFP inclusions. […]

Chain of R2R3 (N279K) tau peptide (P10636 592-653 N596K): as the sequence (P10636 592-653 P618L) above, with N5K, L27P counted along it

Row | SMILES | Kon ([1]; SPR, R2R3 N279K) | koff ([1]; SPR, R2R3 N279K) | Kd ([1]; SPR, R2R3 N279K peptide immobilized, 25°C, PBS pH 7.4, read-out: KD) | AFM morphology of aggregates [2] | concentrations at which seeding was significantly reduced, post-transduction treatment [3] | seeding (CFP/YFP inclusions) after post-transduction treatment [3] | Kd [1] | kon ([1]; SPR, R2R3 N279K) | koff ([1]; SPR, R2R3 N279K, read-out: Koff)
1 | C/C=C(/C=O)[C@@H](CC=O)CC(=O)OCCc1ccc(O)cc1 [OLC, oleocanthal] | 34.60 M⁻¹ s⁻¹ | 6.87e-05 s⁻¹ | 1.98 µM | only sparse fibrils | ≥ 1.25 µM | significantly reduced seeding at all tested concentrations | – | – | –
2 | O=C1c2ccccc2C(=O)c2c(O)c(O)cc(O)c21 [PUR, purpurin] | – | – | – | only sparse fibrils | ≥ 1.25 µM | significantly reduced seeding at all tested concentrations | 4.22 µM | 70.3 M⁻¹ s⁻¹ | 0.000297 s⁻¹

Source: article PMC12381781, “Structural and functional insights into the selective inhibition of mutant tau aggregation by purpurin and oleocanthal in frontotemporal dementia” (Protein Science : A Publication of the Protein Society, 2025)
